The numbers were not newly measured in patent US11311556B2, “Topical dutasteride emulsions for treating endocrine therapy-induced alopecia” (Varsona Therapeutics, Inc., priority 2020, dated 2022), which cites them from elsewhere.

Molecules are shown by their SMILES. Where two headings read alike, the source gives them in different places.

One data set concerns DHT. The following applies: oral, subjects with BPH.
For data set [1] the following is noted: 416 men, 12 to 24 weeks.

As for `CC(C)(C)NC(=O)[C@H]1CC[C@H]2[C@@H]3CC[C@H]4NC(=O)C=C[C@]4(C)[C@H]3CC[C@]12C` [oral finasteride, finasteride], in the data set on DHT (5 mg daily dose), the DHT blocked is reported as 70.8+/−18.3%.

As for `C[C@]12C=CC(=O)N[C@@H]1CC[C@@H]1[C@@H]2CC[C@]2(C)[C@@H](C(=O)Nc3cc(C(F)(F)F)ccc3C(F)(F)F)CC[C@@H]12` [oral dutasteride, (5α, 17β)-N-{2,5 bis(trifluoromethyl)phenyl}-3-oxo-4-azaandrost-1-ene-17-carboxamide], the DHT blocked in the data set on DHT (0.5 mg daily dose) is on record as 94.7+/−3.3%; in the data set with DHT (5 mg daily dose) it was 98.4%. In addition, the “Hair count results versus oral finasteride” value in data set [1] is “better hair count results than oral finasteride”.
